In ChEMBL document CHEMBL1139605, “Novel ketal ligands for the glucocorticoid receptor: in vitro and in vivo activity” (Bioorg Med Chem Lett, 2005):
Each block holds one compound with its values, some of them ahead of it.

Key:
Mus musculus [1] = species: Mus musculus; assay: Effective concentration required for inhibition of interleukin-6 in mouse thioglycolate-elicited peritoneal exudate cell line using 62% radiolabeled Dexamethasone; assay type: functional
A549 [2] = assay: Effective concentration for inhibition of interleukin-6 in human A549 lung carcinoma cell line using 75% radiolabeled Dexamethasone; assay type: functional, cell-based
Glucocorticoid receptor [3] = molecular target: T1, Glucocorticoid receptor (Homo sapiens, UniProt P04150); assay: Inhibition of human glucocorticoid receptor alpha isoform
T1 sequence (P04150 whole entry): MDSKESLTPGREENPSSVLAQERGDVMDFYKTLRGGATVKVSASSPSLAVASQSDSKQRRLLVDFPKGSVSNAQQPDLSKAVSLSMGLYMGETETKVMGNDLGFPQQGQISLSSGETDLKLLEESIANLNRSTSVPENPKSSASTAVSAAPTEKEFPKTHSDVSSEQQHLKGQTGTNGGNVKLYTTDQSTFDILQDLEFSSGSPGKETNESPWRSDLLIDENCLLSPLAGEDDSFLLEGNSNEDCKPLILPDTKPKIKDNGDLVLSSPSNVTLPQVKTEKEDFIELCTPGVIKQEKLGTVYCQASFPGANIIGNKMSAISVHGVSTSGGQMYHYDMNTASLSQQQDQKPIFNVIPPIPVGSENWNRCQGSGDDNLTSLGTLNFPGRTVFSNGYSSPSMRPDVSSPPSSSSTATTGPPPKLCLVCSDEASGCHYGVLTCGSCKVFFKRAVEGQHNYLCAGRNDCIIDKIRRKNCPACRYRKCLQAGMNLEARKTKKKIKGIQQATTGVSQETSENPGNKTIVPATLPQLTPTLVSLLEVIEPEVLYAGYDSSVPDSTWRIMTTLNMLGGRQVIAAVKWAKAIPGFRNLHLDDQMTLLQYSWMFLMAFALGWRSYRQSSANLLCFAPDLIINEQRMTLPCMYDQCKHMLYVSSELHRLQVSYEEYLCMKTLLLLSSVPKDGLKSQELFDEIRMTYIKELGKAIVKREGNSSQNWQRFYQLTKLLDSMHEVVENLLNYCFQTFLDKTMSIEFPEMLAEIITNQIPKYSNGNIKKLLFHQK

Mus musculus [4] = species: Mus musculus; assay: Effective concentration required for interleukin-6 transrepression in peritoneal exudate cells of C57B1/6 mouse using 62% Dexamethasone; assay type: functional, cell-based
Mus musculus [5] = assay: Inhibition of LPS induced TNF-alpha secretion in mouse at an oral dose of 30 mg/kg relative to that produced by Dexamethasone at a dose of 0.3 mg/kg; assay type: functional
Mus musculus [6] = species: Mus musculus; assay: Effective concentration required for inhibition of interleukin-6 in mouse thioglycolate-elicited peritoneal exudate cell line using 81% radiolabeled Dexamethasone; assay type: functional
A549 [7] = assay: Effective concentration for inhibition of interleukin-6 in human A549 lung carcinoma cell line using 65% radiolabeled Dexamethasone; assay type: functional, cell-based
Estrogen receptor = molecular target: T2, Estrogen receptor (Homo sapiens, UniProt P03372); assay: Binding affinity for human estrogen receptor alpha
T2 sequence (P03372 whole entry): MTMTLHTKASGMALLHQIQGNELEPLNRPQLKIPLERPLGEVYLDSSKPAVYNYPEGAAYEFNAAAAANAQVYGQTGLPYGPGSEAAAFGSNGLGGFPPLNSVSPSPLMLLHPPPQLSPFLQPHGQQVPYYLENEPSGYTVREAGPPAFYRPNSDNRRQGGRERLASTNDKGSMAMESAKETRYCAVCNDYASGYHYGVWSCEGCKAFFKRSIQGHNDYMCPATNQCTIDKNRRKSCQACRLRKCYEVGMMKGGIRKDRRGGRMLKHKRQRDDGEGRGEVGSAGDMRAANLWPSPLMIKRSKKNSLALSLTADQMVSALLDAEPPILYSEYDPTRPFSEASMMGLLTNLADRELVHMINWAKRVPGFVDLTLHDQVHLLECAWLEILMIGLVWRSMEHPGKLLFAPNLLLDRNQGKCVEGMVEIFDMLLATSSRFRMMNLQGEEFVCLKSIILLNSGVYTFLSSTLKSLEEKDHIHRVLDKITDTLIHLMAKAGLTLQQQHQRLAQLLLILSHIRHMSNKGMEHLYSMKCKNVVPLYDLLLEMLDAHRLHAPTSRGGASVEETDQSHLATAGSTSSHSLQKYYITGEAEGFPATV

Glucocorticoid receptor [8] = molecular target: T1, Glucocorticoid receptor; assay: Binding affinity for human glucocorticoid receptor
Estrogen receptor beta = Estrogen receptor beta (Homo sapiens, UniProt Q92731); assay: Binding affinity for human estrogen receptor beta
[9] = molecular target: T3, Mineralocorticoid receptor (Rattus norvegicus, UniProt P22199); assay: Binding affinity for rat mineralocorticoid receptor
T3 sequence (P22199 whole entry): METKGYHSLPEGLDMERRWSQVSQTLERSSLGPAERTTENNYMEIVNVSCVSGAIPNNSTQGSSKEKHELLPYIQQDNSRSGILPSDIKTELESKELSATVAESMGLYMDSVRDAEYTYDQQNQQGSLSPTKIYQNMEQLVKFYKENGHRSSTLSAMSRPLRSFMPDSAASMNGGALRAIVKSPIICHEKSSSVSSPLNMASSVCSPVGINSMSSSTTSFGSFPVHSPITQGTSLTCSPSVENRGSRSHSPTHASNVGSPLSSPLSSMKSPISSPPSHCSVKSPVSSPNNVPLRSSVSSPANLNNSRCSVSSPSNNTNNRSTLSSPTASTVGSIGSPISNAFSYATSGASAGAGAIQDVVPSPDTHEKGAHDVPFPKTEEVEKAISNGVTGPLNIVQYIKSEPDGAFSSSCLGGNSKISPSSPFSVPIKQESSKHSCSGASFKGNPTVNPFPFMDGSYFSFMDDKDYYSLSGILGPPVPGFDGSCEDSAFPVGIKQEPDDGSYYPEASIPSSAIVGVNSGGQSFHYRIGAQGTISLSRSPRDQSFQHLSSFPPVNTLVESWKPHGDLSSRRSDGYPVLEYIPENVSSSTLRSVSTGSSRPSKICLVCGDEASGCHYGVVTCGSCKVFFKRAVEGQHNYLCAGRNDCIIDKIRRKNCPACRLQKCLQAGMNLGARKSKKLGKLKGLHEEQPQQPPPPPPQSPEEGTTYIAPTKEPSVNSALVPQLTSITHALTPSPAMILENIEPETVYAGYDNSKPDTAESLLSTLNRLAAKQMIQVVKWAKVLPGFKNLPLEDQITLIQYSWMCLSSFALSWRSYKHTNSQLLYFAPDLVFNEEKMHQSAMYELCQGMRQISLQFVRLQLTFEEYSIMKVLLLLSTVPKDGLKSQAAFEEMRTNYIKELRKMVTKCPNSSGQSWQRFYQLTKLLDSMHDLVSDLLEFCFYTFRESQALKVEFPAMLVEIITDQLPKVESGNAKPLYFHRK

Progesterone receptor = molecular target: T4, Progesterone receptor (Homo sapiens, UniProt P06401); assay: Binding affinity for human progesterone receptor
T4 sequence (P06401 whole entry): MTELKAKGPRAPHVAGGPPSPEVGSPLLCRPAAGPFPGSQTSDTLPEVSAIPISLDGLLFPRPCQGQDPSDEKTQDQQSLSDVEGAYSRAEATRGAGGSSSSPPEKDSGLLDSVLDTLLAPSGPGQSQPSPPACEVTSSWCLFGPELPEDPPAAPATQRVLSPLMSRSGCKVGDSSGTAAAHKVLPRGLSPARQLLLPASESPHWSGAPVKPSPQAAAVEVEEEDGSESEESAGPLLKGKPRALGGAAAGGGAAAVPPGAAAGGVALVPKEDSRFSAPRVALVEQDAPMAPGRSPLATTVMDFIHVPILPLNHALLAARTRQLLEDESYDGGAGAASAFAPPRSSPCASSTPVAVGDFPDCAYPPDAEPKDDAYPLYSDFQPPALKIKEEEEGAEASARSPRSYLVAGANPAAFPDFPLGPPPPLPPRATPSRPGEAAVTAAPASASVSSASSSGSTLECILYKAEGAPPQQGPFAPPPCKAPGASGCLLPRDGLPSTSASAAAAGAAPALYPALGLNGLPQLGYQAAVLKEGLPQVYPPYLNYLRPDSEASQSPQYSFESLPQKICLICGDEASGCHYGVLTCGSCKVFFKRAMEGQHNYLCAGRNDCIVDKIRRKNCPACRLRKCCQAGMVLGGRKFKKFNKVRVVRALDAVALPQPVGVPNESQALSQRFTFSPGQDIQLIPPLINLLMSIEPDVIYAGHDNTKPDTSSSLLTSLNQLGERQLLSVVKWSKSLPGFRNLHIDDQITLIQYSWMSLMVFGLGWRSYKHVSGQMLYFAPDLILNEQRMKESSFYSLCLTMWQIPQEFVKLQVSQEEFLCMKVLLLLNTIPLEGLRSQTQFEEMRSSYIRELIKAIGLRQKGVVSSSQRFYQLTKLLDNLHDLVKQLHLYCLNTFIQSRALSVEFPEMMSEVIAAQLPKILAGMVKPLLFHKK

Mus musculus [10] = species: Mus musculus; assay: Effective concentration required for inhibition of interleukin-6 in mouse thioglycolate-elicited peritoneal exudate cell line using 79% radiolabeled Dexamethasone; assay type: functional
A549 [11] = assay: Effective concentration for inhibition of interleukin-6 in human A549 lung carcinoma cell line using 32% radiolabeled Dexamethasone; assay type: functional, cell-based
A549 [12] = assay: Effective concentration for inhibition of interleukin-6 in human A549 lung carcinoma cell line using 67% radiolabeled Dexamethasone; assay type: functional, cell-based
A549 [13] = assay: Effective concentration required for inhibition of interleukin-6 in human A549 lung carcinoma cell line using […]% radiolabeled Dexamethasone; assay type: functional, cell-based

Sequence of Estrogen receptor beta (Q92731 whole entry): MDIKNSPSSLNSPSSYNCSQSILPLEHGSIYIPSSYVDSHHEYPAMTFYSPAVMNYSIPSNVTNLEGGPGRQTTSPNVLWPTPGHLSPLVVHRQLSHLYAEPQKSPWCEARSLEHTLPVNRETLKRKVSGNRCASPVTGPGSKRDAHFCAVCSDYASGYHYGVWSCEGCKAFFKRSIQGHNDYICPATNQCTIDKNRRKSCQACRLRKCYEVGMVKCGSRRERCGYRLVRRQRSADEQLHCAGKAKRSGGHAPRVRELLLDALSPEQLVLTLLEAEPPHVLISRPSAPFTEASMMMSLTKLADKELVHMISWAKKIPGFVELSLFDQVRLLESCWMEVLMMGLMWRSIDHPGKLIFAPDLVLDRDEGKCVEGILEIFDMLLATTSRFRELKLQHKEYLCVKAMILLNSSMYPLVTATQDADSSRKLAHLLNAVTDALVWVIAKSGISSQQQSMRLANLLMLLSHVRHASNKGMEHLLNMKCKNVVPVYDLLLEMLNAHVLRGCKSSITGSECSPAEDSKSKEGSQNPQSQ

EC50 (Mus musculus [1]): 36 nM | EC50 (A549 [2]): 24 nM | IC50 (Glucocorticoid receptor [3]): 6.6 nM | EC50 (Mus musculus [4]): 36 nM
Structure (SMILES): CC[C@H]1OC2(CCC3=Cc4c(cnn4-c4ccc(F)cc4)C[C@@]32C)O[C@@H]1CC
Inhibition (Mus musculus [5]): 97.8%

IC50 (Glucocorticoid receptor [3]): 38 nM
Structure (SMILES): C=C[C@@H]1CO[C@@]2(CCC3=Cc4c(cnn4-c4ccc(F)cc4)C[C@@]32C)O1

IC50 (Glucocorticoid receptor [3]): 26 nM
Structure (SMILES): C[C@]12Cc3cnn(-c4ccc(F)cc4)c3C=C1CC[C@@]21OC[C@@H](c2ccccc2)O1

IC50 (Glucocorticoid receptor [3]): 49 nM
Structure (SMILES): C=C[C@H]1CO[C@@]2(CCC3=Cc4c(cnn4-c4ccc(F)cc4)C[C@@]32C)O1

Structure (SMILES): C=C[C@H]1OC2(CCCC3=Cc4c(cnn4-c4ccc(F)cc4)C[C@@]32C)O[C@@H]1C=C
EC50 (Mus musculus [6]): 8.7 nM | EC50 (A549 [7]): 5.3 nM | IC50 (Estrogen receptor): > 10000 nM | IC50 (Glucocorticoid receptor [8]): 1.2 nM | IC50 (Estrogen receptor beta): > 10000 nM | IC50 (Glucocorticoid receptor [3]): 1.2 nM | IC50 [9]: 7400 nM | IC50 (Progesterone receptor): > 1000 nM

EC50 (Mus musculus [10]): 78 nM | IC50 (Glucocorticoid receptor [3]): 5.5 nM | EC50 (A549 [11]): 19 nM
Structure (SMILES): CC[C@H]1OC2(CCCC3=Cc4c(cnn4-c4ccc(F)cc4)C[C@@]32C)O[C@@H]1CC

EC50 (Mus musculus [10]): 37 nM | EC50 (A549 [12]): 7.8 nM | IC50 (Glucocorticoid receptor [3]): 2.5 nM
Structure (SMILES): C/C=C/[C@H]1OC2(CCCC3=Cc4c(cnn4-c4ccc(F)cc4)C[C@@]32C)O[C@@H]1/C=C/C

IC50 (Glucocorticoid receptor [3]): 22 nM | EC50 (A549 [13]): 92 nM
Structure (SMILES): CCCC[C@H]1OC2(CCCC3=Cc4c(cnn4-c4ccc(F)cc4)C[C@@]32C)O[C@@H]1CCCC

IC50 (Glucocorticoid receptor [3]): 12 nM
Structure (SMILES): C[C@]12Cc3cnn(-c4ccc(F)cc4)c3C=C1CC[C@]21OC[C@H](c2ccccc2)O1

IC50 (Estrogen receptor): > 10000 nM | IC50 (Glucocorticoid receptor [8]): 14 nM | IC50 (Estrogen receptor beta): > 10000 nM | IC50 (Glucocorticoid receptor [3]): 14 nM | IC50 [9]: 7560 nM | IC50 (Progesterone receptor): > 1000 nM
Structure (SMILES): C[C@]12Cc3cnn(-c4ccc(F)cc4)c3C=C1CCCC21OCCO1
